The text below walks through data of PubChem BioAssay AID1159557 (GlaxoSmithKline (GSK), 2015).

Structures are written as SMILES. The source made the active and inactive calls. The rule behind the calls is not given here. Bounds are passed on as bounds.

This experiment relates to Trypanosoma brucei growth inhibition. In words: trypanosome proliferation inhibitors (AID 1159557).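 Note: parasites exposed to compound for 48 h before the resazurin readout.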
A word on the IC50: it is the concentration needed to halve the response being measured. For `O=C(N[C@H](CO)c1ccccc1)c1ccc(-c2c[nH]c3nccc(C(F)(F)F)c23)s1`, the IC50 is 160 nM.

Consider `O=C(O)[C@H]1C[C@@H]1c1ccc(-c2ccc(CN(CCc3ccccn3)C(=O)C3CCC3)cc2)cc1`, for which the half-maximal inhibitory concentration (IC50) is 630 nM.

On to `CC1=NN(C(=O)CCn2cnc([N+](=O)[O-])n2)C(O)(C(F)(F)F)C1` (stereo not given), for which the IC50 is > 40000 nM (inactive).

On to `CC(C)C[C@H](NC(=O)c1csc(-c2cccs2)n1)C(=O)NC1(C#N)CC1`, for which the 50% inhibitory concentration (IC50) was 160 nM.

As to `CN(C)S(=O)(=O)c1ccc(Cl)c(C(=O)Nc2nc(-c3ccccn3)cs2)c1`, the IC50 is 500 nM.

On to `CCOc1ccc2nc(NC(=O)c3ccc([N+](=O)[O-])s3)sc2c1`, for which the concentration for half-maximal inhibition (IC50) was 1300 nM.

In the case of `Cc1cccc(NS(=O)(=O)c2cnc3sc(C)cn3c2=O)c1`, the IC50 was > 40000 nM (inactive).

Take `Cc1ccc(NC(=O)c2ccnc(N3CCCC3)c2)cc1-c1ccsc1C(N)=O`: the concentration for half-maximal inhibition (IC50) is 63 nM.

Take `COCCn1cnc2cc(NC(=O)C3CCCCC3)cc(C(=O)N3CCc4sccc4C3)c21`: the half-maximal inhibitory concentration (IC50) is 790 nM.

With `CCOc1ccccc1C(=O)Nc1nnc(-c2ccc3c(c2)OCO3)s1`, the IC50 is > 40000 nM (inactive).

Consider `CCS(=O)(=O)c1cccc(C(=O)Nc2nc(-c3ccccn3)cs2)c1`, for which the IC50 was 500 nM.

On to `CCC(c1ccc(F)cc1)n1cncc1-c1cnn(C)c1` (stereo not given), for which the IC50 was > 40000 nM (inactive).

In the case of `CC(C)(C)Nc1nc(-c2ccccn2)nc2ccccc12`, the 50% inhibitory concentration (IC50) is 6300 nM.

Consider `CCOc1ccc(CC(=O)N2c3ccccc3CC2C(=O)NC)cc1` (stereo not given), for which the concentration for half-maximal inhibition (IC50) is 500 nM.

For `CN(CC1CCCO1)S(=O)(=O)c1ccc(C(=O)Nc2nc(-c3ccccn3)cs2)cc1` (stereo not given), the IC50 was 500 nM.

Turning to `Nc1nc(-c2ccccn2)nc(-n2nc(-c3ccccc3)cc2N)n1`, the half-maximal inhibitory concentration (IC50) is 1000 nM.

In the case of `CCc1c(C)nc(-n2nc(C)cc2NC(=O)COc2ccccc2F)[nH]c1=O`, the IC50 was 160 nM.

Take `O=C(NCc1nnc2n1CCCCC2)c1ccc(-c2ccc(F)cc2)o1`: the IC50 is 130 nM.

Regarding `O=C(Cc1ccccc1)Nc1ccccc1C(=O)Nc1nccs1`, the 50% inhibitory concentration (IC50) was 250 nM.

For `COc1ccc(C2=NCC(CSc3nnc(-c4ccc5c(c4)OCO5)o3)S2)cc1` (stereo not given), the IC50 was 10000 nM.

Consider `O=C(CN1CCN(S(=O)(=O)c2cccc([N+](=O)[O-])c2)CC1)Nc1ccc(Oc2ccccc2)cc1`, for which the IC50 is 20000 nM.

`COc1ccc(OC)c2c(=O)c(Cc3ccccc3)c(C)[nH]c12`: the IC50 was > 40000 nM (inactive).

Turning to `COc1ccc(Nc2nc(-c3ccccn3)cc(N3CCCC(O)C3)n2)cc1` (stereo not given), the half-maximal inhibitory concentration (IC50) is 4000 nM.

As to `O=C(Nc1ccc(C(F)(F)F)cc1)NC1(C(=O)NCc2ccco2)CCCCC1`, the 50% inhibitory concentration (IC50) was 790 nM.

On to `Cc1cc(Br)cc(C(=O)c2c(C(C)C)c(=O)[nH]c(=O)n2Cc2ccnc(N)c2)c1`, for which the concentration for half-maximal inhibition (IC50) is 13000 nM.

`CN(Cc1nc2ccccc2s1)C(=O)C=Cc1cc2ccccc2o1`: the IC50 is 32000 nM.

As for `N#Cc1cccc(CN2CCC(c3nc(-c4ccc(C(F)(F)F)nc4)no3)CC2)c1`, the IC50 is > 40000 nM (inactive).

For the compound `CCCCNc1nccc(-c2c(-c3ccc(F)cc3)nn3c(N4CCOCC4)cccc23)n1`, the IC50 was 10000 nM.

Take `N#Cc1cnc(Nc2cccc(CCN3CCOCC3)c2)nc1Nc1ccccc1C(N)=O`: the 50% inhibitory concentration (IC50) is 63 nM.

As for `CS(=O)(=O)N1CCC(Nc2ncc(Br)c(Nc3cccc(F)c3C(N)=O)n2)CC1`, the IC50 is 10 nM.

On to `C[C@@H](Oc1cc(-n2cnc3ccc(CC(O)CO)cc32)sc1C(N)=O)c1ccccc1Cl` (stereo not given in full), for which the IC50 was 630 nM.

As for `Cc1nn(C)c(Cl)c1CN(Cc1cccnc1)Cc1ccsc1`, the IC50 was > 40000 nM (inactive).

Regarding `COc1ncc(-c2ccc3nccc(-c4ccncc4)c3c2)cc1NS(=O)(=O)C1CC1`, the IC50 was 200 nM.

As to `O=C(c1cccc(Cl)c1Cl)N1CCn2c1nc(-c1ccncc1)cc2=O`, the IC50 is 16000 nM.

On to `O=C(c1ccc(O)c(Cl)c1)N1CCN(c2cnccn2)CC1`, for which the IC50 is > 40000 nM (inactive).

On to `c1ccc2sc(Nc3nc4ncccc4[nH]3)nc2c1`, for which the IC50 is 1000 nM.

For the compound `O=C1NCc2cccc(Nc3nc(NC4CCC(O)CC4)ncc3Br)c21` (stereo not given), the half-maximal inhibitory concentration (IC50) is 63 nM.

Turning to `CNc1nc(C)nc(N2CCc3cc(C(=O)NCc4ccc(-c5nccn5C)cc4Cl)ccc32)n1`, the IC50 is 13000 nM.

Regarding `Cc1nc(-c2ccncc2)ncc1C(C)NC(=O)c1ccc(Cl)s1` (stereo not given), the IC50 is 1000 nM.

Take `COc1ccc(Cl)cc1CC(=O)Nc1n[nH]c(-c2ccccn2)n1`: the IC50 is 16000 nM.

As to `Cc1nc(-c2nc(NCc3ccc(Cl)cc3)c3cccnc3c2O)n[nH]1`, the IC50 was 630 nM.

On to `CC(C)Oc1cccc(N2CCC(C(=O)N3CCCN(C(C)C)CC3)CC2)c1`, for which the IC50 is > 40000 nM (inactive).

Regarding `Cc1cc(N(C)C)nc2ccc(Cc3cnc(N)nc3N)cc12`, the IC50 was 5000 nM.

In the case of `CNc1nc(C)nc(N2CCc3cc(C(=O)NCc4ccc(-c5ccn[nH]5)cc4Cl)ccc32)n1`, the 50% inhibitory concentration (IC50) was 13000 nM.

On to `Cc1nc(C(=O)Nc2ccc3c(c2)OCO3)nn1-c1ccc(F)cc1`, for which the IC50 was > 40000 nM (inactive).

Take `CN(C)S(=O)(=O)c1ccc(-c2cnc(N)c(-c3nc4ccc(F)cc4[nH]3)c2)cc1`: the IC50 was 400 nM.

For the compound `Fc1ccc(Nc2nc(-c3ccccn3)cs2)cc1`, the IC50 is 25000 nM.

For `Cc1cc(NC(=O)CC2CCCCC2)n(-c2nc3c(c(=O)[nH]2)CCC3)n1`, the IC50 was 200 nM.

Turning to `COc1ccc(C(=O)Nc2c(C)nn(COc3cccc(C(F)(F)F)c3)c2C)cc1`, the IC50 was 790 nM.

In the case of `c1cc(-c2ncc(-c3ccn[nH]3)s2)ccn1`, the IC50 is 20000 nM.

`CCCCCNC(=O)c1c[nH]c2ccc(S(=O)(=O)N(C)c3ccc(OCC)cc3)cc2c1=O`: the IC50 was 320 nM.

As to `Clc1ccc(Sc2cnccc2N2CCOCC2)cc1`, the IC50 was 25000 nM.

As for `C=CCOCC1Cn2nc([N+](=O)[O-])nc2O1` (stereo not given), the IC50 is > 40000 nM (inactive).

Take `N#Cc1ccccc1S(=O)(=O)N1CCN(C(=O)CNC(=O)c2ccc3c(c2)OCO3)CC1`: the IC50 is > 40000 nM (inactive).

For the compound `O=C(Nc1ccccc1)Nc1nc(-c2ccccn2)cs1`, the half-maximal inhibitory concentration (IC50) is 1000 nM.

For `O=S(=O)(c1cccc(CSc2nnc(-c3ccc4c(c3)OCO4)o2)c1)N1CCOCC1`, the concentration for half-maximal inhibition (IC50) was 32000 nM.

As to `Cc1cc(N(C)C)nc(Nc2ccccc2C)n1`, the IC50 was 32000 nM.

On to `CC(C)(C)C(=O)NCCc1csc(-c2ccc(F)cc2)n1`, for which the IC50 is 630 nM.

With `COc1ccc(-c2ccc3nnc(-c4ccc(O)c(OC)c4)n3c2)cn1`, the IC50 is 2000 nM.

In the case of `COc1ccc(Nc2nc(NC3CCC(O)CC3)ncc2Br)c(C(N)=O)c1` (stereo not given), the half-maximal inhibitory concentration (IC50) is 100 nM.

For `Cc1cc(Oc2cc(Cl)c(Cl)cc2Cl)n2ncnc2n1`, the half-maximal inhibitory concentration (IC50) was 790 nM.

For the compound `COc1ccc(NS(=O)(=O)c2cc(-c3cc(C)[nH]n3)ccc2C)cc1OC`, the IC50 was 320 nM.

Consider `NCc1csc(Nc2cc(Oc3ccccc3)ncn2)n1`, for which the IC50 is 630 nM.

`COc1ccc(CNc2cc(C3CC3)nc(-c3nccn3C)n2)cc1`: the 50% inhibitory concentration (IC50) was 1300 nM.

Turning to `OC[C@@H](Nc1nccc(-c2c(-c3ccc(F)cc3)ncn2C2CCNCC2)n1)c1ccccc1`, the IC50 was 400 nM.

Regarding `CNc1cc(Cn2c(C(=O)c3cc(C)cc(Cl)c3)c(C(C)C)c(=O)[nH]c2=O)ccn1`, the concentration for half-maximal inhibition (IC50) is 25000 nM.

For `CCCN1CCN(Cc2ccc(S(=O)(=O)Nc3cccc(C)c3)cc2)CC1`, the IC50 was 25000 nM.

Take `COc1ccc2ncc(Cl)c(CCN3CC[C@@H](NCc4cc5c(cn4)OCS5)[C@H](O)C3)c2n1`: the IC50 is 320 nM.

In the case of `O=C(NCCc1cccnc1)c1ccc(-c2ccccc2F)o1`, the IC50 was 32000 nM.

For the compound `CC(C)Nc1nc(Cl)nc2ccccc12`, the 50% inhibitory concentration (IC50) was 5000 nM.

Turning to `c1ccc(-c2nc(NCc3ccco3)c3ccccc3n2)nc1`, the IC50 was > 40000 nM (inactive).

With `CN(C)Cc1cccc(Nc2nccc(-c3ccc(NCCN)c(C#N)c3)n2)c1`, the half-inhibitory concentration (IC50) is 50 nM.

Turning to `CS(=O)(=O)c1ccc(Nc2nccc(-c3cnn4ncccc34)n2)cc1`, the IC50 was 160 nM.

As for `Cc1ccc(C)c(OC2CCN(C(=O)C(C)n3ccnc3)CC2)c1` (stereo not given), the IC50 is > 40000 nM (inactive).

Consider `Cc1[nH]n2c(=O)c3c(nc2c1-c1ccc(F)cc1)CCCC3`, for which the IC50 was 400 nM.

As to `c1ccc(Nc2nc3ccccc3[nH]2)nc1`, the half-inhibitory concentration (IC50) is 16000 nM.

On to `Cc1ccc(Nc2nc(C3CCCN3Cc3ccn[nH]3)cs2)nc1` (stereo not given), for which the 50% inhibitory concentration (IC50) was 790 nM.

For `CCN(CC)S(=O)(=O)c1ccc(C(=O)Nc2cc(C)nn2-c2nc(C)c(C)c(=O)[nH]2)cc1`, the IC50 is 320 nM.

With `O=C(c1cc2cc(Cl)ccc2[nH]1)N1CCCCC1c1cccnc1` (stereo not given), the IC50 is 25000 nM.

With `O=C(COc1ccccc1)Nc1ccccc1C(=O)Nc1nccs1`, the IC50 was 400 nM.

As to `O=C(NCCc1nc(-c2ccc(F)c(F)c2)n[nH]1)C1CCCCC1`, the half-maximal inhibitory concentration (IC50) was 500 nM.

On to `CC(C)(C)C(=O)Nc1cc(C2CC2)nn1-c1nc2c(c(=O)[nH]1)CCCC2`, for which the concentration for half-maximal inhibition (IC50) was 160 nM.

Take `COc1ccc(S(=O)(=O)Nc2ccccc2OC)cc1NC(=O)CCCc1c[nH]c2ccccc12`: the concentration for half-maximal inhibition (IC50) was 13000 nM.

In the case of `O=C(CCCn1cnc([N+](=O)[O-])n1)Nc1cccc(Cl)c1`, the IC50 was 5000 nM.

Take `CCN(C)Cc1ccc(N2CCC(NS(=O)(=O)c3ccc4c(c3)CCO4)CC2)nc1`: the IC50 was > 40000 nM (inactive).

As to `Cc1cc(Br)sc1CNCCCNc1cc(=O)c2ccccc2[nH]1`, the 50% inhibitory concentration (IC50) was 63 nM.

Regarding `Cc1c(C#N)c([N+](=O)[O-])nn1Cc1cccc(Cl)c1Cl`, the IC50 was 16000 nM.

Consider `O=c1cc(NCCCNCc2c[nH]c3ccc(Br)cc23)[nH]c2ccccc12`, for which the 50% inhibitory concentration (IC50) was 1000 nM.

Turning to `Fc1ccc(OC2CC(NCc3cccc4cn[nH]c34)C2)cc1C(F)(F)F` (stereo not given), the concentration for half-maximal inhibition (IC50) is 7900 nM.

`N#Cc1nc(C=Cc2ccccc2)oc1NCc1cccnc1`: the 50% inhibitory concentration (IC50) was 16000 nM.

Turning to `N#Cc1cccc(Nc2nccc(N3CCC(NS(=O)(=O)c4cccc(C#N)c4)CC3)n2)c1`, the concentration for half-maximal inhibition (IC50) was 6300 nM.

Regarding `CCOc1ccc(N(C)S(=O)(=O)c2ccc3[nH]cc(C(=O)NC4CCCC4)c(=O)c3c2)cc1`, the IC50 is 250 nM.

For the compound `CCN(CC)c1nc(N(C)C)nc2c1CN(Cc1ccccc1)CC2`, the IC50 was 20000 nM.

On to `Cn1ccnc1-c1nc(NCc2ccccc2Cl)cc(C2CC2)n1`, for which the 50% inhibitory concentration (IC50) is 2000 nM.

With `COc1ccc(-c2nc3ncccc3o2)cc1NC(=O)c1cccs1`, the IC50 is 1300 nM.
